# From ChEMBL document CHEMBL3885881, “DrugMatrix”
# Organism: Rattus norvegicus
# Experiment: DrugMatrix - Regimen: Daily Repeat
# Type: toxicity, organism-based, Sprague-Dawley
# Parameters: regimen Daily Repeat, gender Male, age 6-8 weeks
# Details: in vivo, po, route oral GAVAGE, vehicle 100 % WATER; for NUCLEATED RED BLOOD CELLS / PLATELET COUNT / ABSOLUTE BASOPHIL / ABSOLUTE EOSINOPHIL / ABSOLUTE LYMPHOCYTE / ABSOLUTE MONOCYTE / ABSOLUTE SEGMENTED NEUTROPHIL / BASOPHIL / EOSINOPHIL / ERYTHROCYTE COUNT / HEMATOCRIT / LEUKOCYTE COUNT / LYMPHOCYTE / MEAN CORPUSCULAR HEMOGLOBIN / MEAN CORPUSCULAR HEMOGLOBIN CONCENTRATION / MEAN CORPUSCULAR VOLUME / MONOCYTE / NEUTROPHIL: tissue Blood; for ALANINE AMINOTRANSFERASE / ALBUMIN / ALKALINE PHOSPHATASE / ASPARTATE AMINOTRANSFERASE / BLOOD UREA NITROGEN / CARBON DIOXIDE / CHLORIDE / CHOLESTEROL / CREATINE PHOSPHOKINASE / CREATININE / LIPASE / POTASSIUM / TOTAL BILIRUBIN / TOTAL PROTEIN: tissue Plasma
# [1] = 44 mg/kg, 120 h, dose level Low, time 5 day
# [2] = 600 mg/kg, 72 h, dose level M1, time 3 day
# [3] = 600 mg/kg, 120 h, dose level M1, time 5 day
# [4] = 1200 mg/kg, 72 h, dose level High, time 3 day
structure (smiles),measurement,setting,value
NC(=O)c1ncn([C@@H]2O[C@H](CO)[C@@H](O)[C@H]2O)n1 [RIBAVIRIN],NUCLEATED RED BLOOD CELLS,[1],0 /100WBC
same,PLATELET COUNT,[1],1248.67 x10E3/uL
same,ALANINE AMINOTRANSFERASE,[1],43 u/L
same,ALBUMIN,[1],4.37 G/DL
same,ALKALINE PHOSPHATASE,[1],347 u/L
same,ASPARTATE AMINOTRANSFERASE,[1],75.33 u/L
same,BLOOD UREA NITROGEN,[1],13.67 mg/dL
same,CARBON DIOXIDE,[1],26 mmol/L
same,CHLORIDE,[1],102 MEQ/L
same,CHOLESTEROL,[1],63 mg/dL
same,CREATINE PHOSPHOKINASE,[1],230.67 u/L
same,CREATININE,[1],0.16 mg/dL
same,LIPASE,[1],8 u/L
same,POTASSIUM,[1],6.69 MEQ/L
same,TOTAL BILIRUBIN,[1],0.2 mg/dL
same,TOTAL PROTEIN,[1],6 G/DL
same,ABSOLUTE BASOPHIL,[2],0 CELLS/uL
same,ABSOLUTE EOSINOPHIL,[2],216 CELLS/uL
same,ABSOLUTE LYMPHOCYTE,[2],9535 CELLS/uL
same,ABSOLUTE MONOCYTE,[2],0 CELLS/uL
same,ABSOLUTE SEGMENTED NEUTROPHIL,[2],1715.67 CELLS/uL
same,BASOPHIL,[2],0%
same,EOSINOPHIL,[2],2%
same,ERYTHROCYTE COUNT,[2],6.28 x10E6/uL
same,HEMATOCRIT,[2],39.7%
same,LEUKOCYTE COUNT,[2],11.47 x10E3/uL
same,LYMPHOCYTE,[2],82.67%
same,MEAN CORPUSCULAR HEMOGLOBIN,[2],23.53 pg
same,MEAN CORPUSCULAR HEMOGLOBIN CONCENTRATION,[2],37.3 G/DL
same,MEAN CORPUSCULAR VOLUME,[2],63.2 fL
same,MONOCYTE,[2],0%
same,NEUTROPHIL,[2],15.33%
same,NUCLEATED RED BLOOD CELLS,[2],0 /100WBC
same,PLATELET COUNT,[2],1269.33 x10E3/uL
same,ALANINE AMINOTRANSFERASE,[2],185 u/L
same,ALBUMIN,[2],3.7 G/DL
same,ALKALINE PHOSPHATASE,[2],293.33 u/L
same,ASPARTATE AMINOTRANSFERASE,[2],480 u/L
same,BLOOD UREA NITROGEN,[2],16.33 mg/dL
same,CARBON DIOXIDE,[2],16 mmol/L
same,CHLORIDE,[2],104.33 MEQ/L
same,CHOLESTEROL,[2],83 mg/dL
same,CREATINE PHOSPHOKINASE,[2],1211.67 u/L
same,CREATININE,[2],0.22 mg/dL
same,LIPASE,[2],35 u/L
same,POTASSIUM,[2],7.1 MEQ/L
same,TOTAL BILIRUBIN,[2],0.2 mg/dL
same,TOTAL PROTEIN,[2],5.33 G/DL
same,ABSOLUTE BASOPHIL,[3],0 CELLS/uL
same,ABSOLUTE EOSINOPHIL,[3],179.33 CELLS/uL
same,ABSOLUTE LYMPHOCYTE,[3],10736 CELLS/uL
same,ABSOLUTE MONOCYTE,[3],0 CELLS/uL
same,ABSOLUTE SEGMENTED NEUTROPHIL,[3],2451.33 CELLS/uL
same,BASOPHIL,[3],0%
same,EOSINOPHIL,[3],1.33%
same,ERYTHROCYTE COUNT,[3],6.48 x10E6/uL
same,HEMATOCRIT,[3],40.57%
same,LEUKOCYTE COUNT,[3],13.37 x10E3/uL
same,LYMPHOCYTE,[3],81.33%
same,MEAN CORPUSCULAR HEMOGLOBIN,[3],23.67 pg
same,MEAN CORPUSCULAR HEMOGLOBIN CONCENTRATION,[3],37.87 G/DL
same,MEAN CORPUSCULAR VOLUME,[3],62.53 fL
same,MONOCYTE,[3],0%
same,NEUTROPHIL,[3],17.33%
same,NUCLEATED RED BLOOD CELLS,[3],0.33 /100WBC
same,PLATELET COUNT,[3],1066.33 x10E3/uL
same,ALANINE AMINOTRANSFERASE,[3],34 u/L
same,ALBUMIN,[3],3.63 G/DL
same,ALKALINE PHOSPHATASE,[3],197 u/L
same,ASPARTATE AMINOTRANSFERASE,[3],117.33 u/L
same,BLOOD UREA NITROGEN,[3],15 mg/dL
same,CARBON DIOXIDE,[3],16 mmol/L
same,CHLORIDE,[3],107.67 MEQ/L
same,CHOLESTEROL,[3],65.67 mg/dL
same,CREATINE PHOSPHOKINASE,[3],1121 u/L
same,CREATININE,[3],0.19 mg/dL
same,LIPASE,[3],14.33 u/L
same,POTASSIUM,[3],7.12 MEQ/L
same,TOTAL BILIRUBIN,[3],0.13 mg/dL
same,TOTAL PROTEIN,[3],5.2 G/DL
same,ABSOLUTE BASOPHIL,[4],0 CELLS/uL
same,ABSOLUTE EOSINOPHIL,[4],0 CELLS/uL
same,ABSOLUTE LYMPHOCYTE,[4],6405 CELLS/uL
same,ABSOLUTE MONOCYTE,[4],112.67 CELLS/uL
same,BASOPHIL,[4],0%
same,EOSINOPHIL,[4],0%
same,ERYTHROCYTE COUNT,[4],6.37 x10E6/uL
same,HEMATOCRIT,[4],39.37%
same,LEUKOCYTE COUNT,[4],8 x10E3/uL
same,LYMPHOCYTE,[4],80%
same,MEAN CORPUSCULAR HEMOGLOBIN,[4],24.77 pg
same,MEAN CORPUSCULAR HEMOGLOBIN CONCENTRATION,[4],40.07 G/DL
same,MEAN CORPUSCULAR VOLUME,[4],61.7 fL
same,MONOCYTE,[4],1.33%
same,NEUTROPHIL,[4],18.67%
same,NUCLEATED RED BLOOD CELLS,[4],0 /100WBC
same,PLATELET COUNT,[4],1071 x10E3/uL
same,ALANINE AMINOTRANSFERASE,[4],55.67 u/L
same,ALBUMIN,[4],3.17 G/DL
same,ALKALINE PHOSPHATASE,[4],195.67 u/L
same,ASPARTATE AMINOTRANSFERASE,[4],225.67 u/L
same,BLOOD UREA NITROGEN,[4],13.33 mg/dL
same,CARBON DIOXIDE,[4],20 mmol/L
same,CHLORIDE,[4],113.33 MEQ/L
same,CHOLESTEROL,[4],88 mg/dL
same,CREATINE PHOSPHOKINASE,[4],1322.67 u/L
same,CREATININE,[4],0.12 mg/dL
same,LIPASE,[4],7.67 u/L
same,POTASSIUM,[4],7 MEQ/L
same,TOTAL BILIRUBIN,[4],0.2 mg/dL
same,TOTAL PROTEIN,[4],4.47 G/DL
